The values below come from patent US20100292266A1, “Oxazolyl Piperidine Modulators of Fatty Acid Amide Hydrolase” (priority 2006, published 2010).

The conditions of experiment [1]: cited from earlier work.
Experiment [2] addresses T1, FAAH (Homo sapiens, UniProt O00519).
T1 sequence (O00519 1-579): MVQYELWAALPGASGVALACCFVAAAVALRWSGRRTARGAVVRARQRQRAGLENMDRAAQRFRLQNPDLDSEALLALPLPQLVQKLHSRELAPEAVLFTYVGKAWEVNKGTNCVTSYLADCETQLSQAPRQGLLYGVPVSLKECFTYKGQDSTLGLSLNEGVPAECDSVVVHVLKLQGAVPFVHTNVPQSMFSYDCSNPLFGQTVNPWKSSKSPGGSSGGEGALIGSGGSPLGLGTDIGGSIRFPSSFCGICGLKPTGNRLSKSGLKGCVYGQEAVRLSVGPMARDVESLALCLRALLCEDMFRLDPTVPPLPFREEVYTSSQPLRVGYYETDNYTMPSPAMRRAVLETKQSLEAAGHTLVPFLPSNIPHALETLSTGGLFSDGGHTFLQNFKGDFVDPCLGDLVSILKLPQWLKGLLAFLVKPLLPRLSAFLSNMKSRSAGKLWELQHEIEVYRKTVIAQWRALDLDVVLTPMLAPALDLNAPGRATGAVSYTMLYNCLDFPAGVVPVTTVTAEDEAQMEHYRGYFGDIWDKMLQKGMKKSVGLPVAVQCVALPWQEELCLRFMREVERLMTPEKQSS
To be noted: WO 04/033652; cited from earlier work.

The conditions of experiment [3]: rats; WO 04/033652; cited from earlier work.
For experiment [4] the following is noted: rats; WO 02/087569; cited from earlier work.
For experiment [5] the following is noted: rats; WO 02/087569; cited from earlier work. The source holds these as a separate data set.
The conditions of experiment [6]: rats; Kathuria 2003; cited from earlier work.
For experiment [7] the following is noted: Kathuria 2003; cited from earlier work.
A further experiment addresses T2, Rat FAAH (Rattus norvegicus, UniProt P97612).
T2 construct: expressed in transfected cells
T2 sequence (P97612 1-579): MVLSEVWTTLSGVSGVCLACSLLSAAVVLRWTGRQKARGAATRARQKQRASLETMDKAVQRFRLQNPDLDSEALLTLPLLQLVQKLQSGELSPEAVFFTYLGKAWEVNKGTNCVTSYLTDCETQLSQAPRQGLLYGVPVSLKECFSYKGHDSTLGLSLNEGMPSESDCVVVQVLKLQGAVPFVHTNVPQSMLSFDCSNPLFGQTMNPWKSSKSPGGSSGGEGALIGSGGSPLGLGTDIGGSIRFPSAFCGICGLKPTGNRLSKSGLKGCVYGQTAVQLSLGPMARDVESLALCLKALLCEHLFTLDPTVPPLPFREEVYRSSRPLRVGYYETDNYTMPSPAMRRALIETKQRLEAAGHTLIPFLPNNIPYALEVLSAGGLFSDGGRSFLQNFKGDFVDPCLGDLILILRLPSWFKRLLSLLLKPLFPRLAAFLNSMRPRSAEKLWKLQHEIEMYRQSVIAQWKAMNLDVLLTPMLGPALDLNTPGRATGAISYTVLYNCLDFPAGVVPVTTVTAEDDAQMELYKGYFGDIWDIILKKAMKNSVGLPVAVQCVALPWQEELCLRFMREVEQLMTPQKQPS
Nature of the experiment: Assay Method 2: FAAH assay, 3H-anandamide hydrolysis in cell homogenate. To be noted: transfected SK-N-MC cell homogenate, 80 nM 3H-AEA, 1 h rt, > = solubility limit or highest concentration tested. In kind it is biochemical. The procedure, abridged: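 Homogenate of SK-N-MC cells stably transfected with rat FAAH cDNA (G418-selected clones) incubated with compound and 80 nM final [3H]-anandamide for 1 h. Released [3H]-ethanolamine separated on activated charcoal filters by centrifugation and counted by scintillation. ">" values mark solubility limit or top concentration tested.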

For experiment [8], the target named is T1, FAAH. Nature of the experiment: Assay Method 1: FAAH assay, 3H-anandamide hydrolysis in cell homogenate. In kind it is biochemical. Details: expressed in transfected cells. To be noted: T84 or transfected SK-N-MC cell homogenate, 80 nM 3H-AEA, 1 h rt, > = solubility limit or highest concentration tested. The procedure, abridged:
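Homogenate of SK-N-MC cells stably transfected with human FAAH, incubated with compound and 80 nM final ³H-anandamide for 1 h at rt. Released ³H-ethanolamine separated from substrate on activated charcoal and counted by scintillation. ">" values reflect solubility limit or top concentration tested.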

The conditions of experiment [9]: model of multiple sclerosis, Baker 2001; cited from earlier work.

Each structure is given as a SMILES string.

Turning to `O=C(CCCCCCc1ccccc1)c1ncc(-c2ccccn2)o1` [OL-135], in experiment [1] (rats, WO 04/033652), the “analgesic activity in hot plate test of thermal nociception” value is listed as “analgesic activity”. Besides, the “inhibition of FAAH” value at FAAH [2] is “potent inhibitor of FAAH”. Moreover, the “analgesic activity in tail emersion test of thermal nociception” value in experiment [3] is “analgesic activity”.

As to `Cc1nc(-c2ccccc2)c(-c2ccccc2)n1CCCCCCNC(=O)Oc1ccccc1F` [BMS-1], in experiment [4], the “analgesic effect in Chung spinal nerve ligation model of neuropathic pain” value was “analgesic effect”. For the same molecule, the “analgesic effect in Hargraves test of acute thermal nociception” value in [5] was “analgesic effect”.

With `NC(=O)c1cccc(-c2cccc(OC(=O)NC3CCCCC3)c2)c1` [URB-597], in experiment [6], the “efficacy in zero plus maze model of anxiety” value is “efficacy”. For the same molecule, the “analgesic efficacy in rat hot plate test” value in [1] (rat, Kathuria 2003) is recorded as “analgesic efficacy”. The “analgesic efficacy in rat formalin test” value in experiment [7] is listed as “analgesic efficacy”.

For `COc1ccc(CN2CCC(C(=O)c3ncco3)CC2)cn1` [Example 81, [1-(6-Methoxy-pyridin-3-ylmethyl)-piperidin-4-yl]-oxazol-2-yl-methanone], the IC50 on Rat FAAH was found to be 1700 nM; against FAAH [8], 315 nM.

For the molecule `Cc1ccccc1CN1CCC(C(=O)c2ncco2)CC1` [Example 66, [1-(2-Methyl-benzyl)-piperidin-4-yl]-oxazol-2-yl-methanone], the IC50 is 600 nM at Rat FAAH and 175 nM at FAAH [8].

Regarding `CCCCCCCCCCCCCCCCS(=O)(=O)F` [AM374], in [9], the “spasticity in CREAE mice” value is “significantly reduce spasticity”.

As for `Cc1cccc2cc(CN3CCC(C(=O)c4ncco4)CC3)c(Cl)nc12` [Example 73, [1-(2-Chloro-8-methyl-quinolin-3-ylmethyl)-piperidin-4-yl]-oxazol-2-yl-methanone], the values for the IC50 at Rat FAAH and against FAAH [8] were 4 nM and 2 nM, respectively.

As usually defined, the IC50 is the concentration that inhibits the measured activity by half. Lower therefore signals greater potency.
